Experiments:
[1] = target: S-RBD-ACE2 protein complex (Homo sapiens, UniProt Q9BYF1); assay type: binding, SARS-CoV-2
[2] = target: SARS-CoV2 S2 ECD (Severe acute respiratory syndrome coronavirus 2, UniProt P0DTC2); test: biochemical; assay type: binding, SARS-CoV-2
[3] = target: SARS-CoV-2 S1 + S2 ECD (Severe acute respiratory syndrome coronavirus 2, UniProt P0DTC2); test: biochemical; assay type: binding
[4] = target: human ACE2 (Homo sapiens, UniProt Q9BYF1); test: Surface plasmon resonance assay, human ACE2 chip; assay type: binding; settings: SPR, human ACE2 extracellular domain, pH 4.5, 25 °C
Chain of human ACE2 (Q9BYF1 18-740): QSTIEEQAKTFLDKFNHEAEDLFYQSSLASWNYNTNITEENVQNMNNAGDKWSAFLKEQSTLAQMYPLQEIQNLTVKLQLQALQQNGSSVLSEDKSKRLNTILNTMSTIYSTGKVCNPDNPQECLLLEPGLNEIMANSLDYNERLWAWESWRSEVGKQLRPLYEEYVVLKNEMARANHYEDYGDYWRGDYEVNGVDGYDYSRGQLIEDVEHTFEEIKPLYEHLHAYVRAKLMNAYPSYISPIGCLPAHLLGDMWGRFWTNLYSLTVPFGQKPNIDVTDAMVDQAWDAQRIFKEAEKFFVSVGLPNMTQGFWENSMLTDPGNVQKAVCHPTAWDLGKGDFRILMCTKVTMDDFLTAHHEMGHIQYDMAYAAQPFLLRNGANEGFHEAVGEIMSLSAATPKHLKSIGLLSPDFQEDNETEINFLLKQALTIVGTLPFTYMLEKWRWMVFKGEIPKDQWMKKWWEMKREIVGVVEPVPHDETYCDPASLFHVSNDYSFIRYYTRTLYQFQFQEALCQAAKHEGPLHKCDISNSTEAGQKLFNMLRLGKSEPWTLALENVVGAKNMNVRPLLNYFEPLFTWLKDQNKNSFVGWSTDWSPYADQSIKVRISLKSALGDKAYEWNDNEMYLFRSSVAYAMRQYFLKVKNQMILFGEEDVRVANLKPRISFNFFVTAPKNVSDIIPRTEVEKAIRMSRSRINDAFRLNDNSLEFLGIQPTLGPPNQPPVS

Chain of S-RBD-ACE2 protein complex (Q9BYF1 18-740, one chain of several): as the sequence (Q9BYF1 18-740) above

For `CC1=NN(c2ccc(C)c(C)c2)C(=O)/C1=N\Nc1cccc(-c2cccc(C(=O)O)c2)c1O` [Eltrombopag], the “Tm Mean of RBD-ACE2 complex” value [1] was 49.9 °C, the Kd ([2]; KD) was 2.17 µM and the Kd [3] was 2.01 µM. For the same compound, the Kd [4] was 0.828 µM and the Rmax [4] was 21.95 RU.
Glycyrrhizic acid was tested, and the Rmax ([2]; pH 5.5) was 623.7 RU.
In the case of `CC1(C)[C@@H](O[C@H]2O[C@H](C(=O)O)[C@@H](O)[C@H](O)[C@H]2O[C@@H]2O[C@H](C(=O)O)[C@@H](O)[C@H](O)[C@H]2O)CC[C@]2(C)[C@H]3C(=O)C=C4[C@@H]5C[C@@](C)(C(=O)O)CC[C@]5(C)CC[C@@]4(C)[C@]3(C)CC[C@@H]12` [Glycyrrhizin, glycyrrhizin], the Kd [4] is reported as 1800 µM and the Rmax ([4]; listed as glycyrrhizin) is reported as 499.4 RU.
For `[Cl-].[Cl-].[Mg+2]` [MgCl2], the “Tm Mean of RBD-ACE2 complex” value [1] was 51.6 °C.
`CC1(C)[C@@H](O[C@H]2O[C@H](C(=O)O)[C@@H](O)[C@H](O)[C@H]2O[C@@H]2O[C@H](C(=O)O)[C@@H](O)[C@H](O)[C@H]2O)CC[C@]2(C)[C@H]3C(=O)C=C4[C@@H]5C[C@@](C)(C(=O)O)CC[C@]5(C)CC[C@@]4(C)[C@]3(C)CC[C@@H]12` [Glycyrrhizate, glycyrrhizate] was tested, and the Kd [4] was 4900 µM and the Rmax ([4]; listed as glycyrrhizate) was 557.8 RU.
For `[Ca+2].[Cl-].[Cl-]` [CaCl2], the “Tm Mean of RBD-ACE2 complex” value [1] was 51.6 °C.
